Patent publication US20160361250A1, “ACTIVE INGREDIENTS STIMULATING TYPE 2 AND/OR TYPE 3 HUMAN BETA-DEFENSINS AND COSMETIC OR PHARMACEUTICAL COMPOSITIONS CONTAINING SUCH ACTIVE INGREDIENTS” (BASF Beauty Care Solutions France S.A.S., priority 2002, published 2016)
Several values for one entry are separate records, joined by “and”; a condition that tells them apart may be missing. Equal values may be shown once.

Tests used:
IL8 [1] = assay: ELISA of IL8 secreted into the culture medium, 1st step; assay type: cell-based, human; details: keratinocyte supernatant, 16 h
Method: (§1) At the end of this first step, the actives having exerted an effect on β-defensin expression are selected and the supernatants corresponding to these actives are then tested using an ELISA kit in order to determine the levels of MIP3α, IL1 and IL8 secreted into the culture medium under the effect of the actives. The levels are then referred to the RNA concentration assayed in each well in order to compare results with each other.
(§2) Since the basal level of defensin expression is generally not detectable, stimulation of hBD2 and hBD3 is expressed as a percentage of the positive controls (TNFα for hBD2 and IFNγ for hBD3). IL8 and MIP3α levels are given as pg/mL/RNA concentration (in ng/μL).

hBD3 [2] = assay: Qualitative RT-PCR of hBD3 expression, 1st step of the screening method; assay type: cell-based; details: normal human keratinocytes, 16 h
Method: (§3) At 80% confluence, cells are contacted with the actives (1 active per well) for 16 h. An untreated control and 2 positive controls (TNFα 100 ng/mL for hBD2 and IFNγ 100 ng/mL for hBD3) are set up in parallel on the same culture plate.
(§4) After 16 h, the supernatants are collected and cells are dry frozen at −80° C. after rinsing in PBS.
(§5) Total RNA are extracted using a 96-well extraction kit on silica columns and assayed using a 96-well spectrophotometer at 260 and 280 nm. RNA are diluted to 5 ng/mL.
(§6) Qualitative one-step RT-PCR is performed on 50 ng of initial RNA in 96 wells, on actin, hBD2 and hBD3. The primers are used at a concentration of 0.5 μM and arc taken from the literature:—hBD2: sense: 5′-[…]-3′; hBD2 antisense 5′-[…]-3′ (Harder J. et al., A peptide antibiotic from human skin. Nature 1997; 387 : 861); hBD3 sense: 5′-[…]-3′; hBD3 antisense: 5′-[…]-3′; actin sense: 5′-[…]-3′; actin antisense: 5′-[…]-3′ (Harder J. et al., Isolation and characterization of human β-defensin-3, a novel human inducible peptide antibiotic. J Biol Chem 2001, 276 : 5707-5713).
(§7) Samples are placed in a thermocycler and follow a common amplification program: 50° C., 30 min; 94° C., 2 min, (94° C., 30 s; 60° C., 30 s; 68° C., 30 s), 32 cycles for the defensins and 30 cycles for actin; 72° C., 10 min; 14° C., infinite.
(§8) After amplification, the products are mixed at a rate of 3 μL of actin amplification products+6 μL of hBD2 amplification products+6 μL of hBD3 amplification products. 5 μL of a mixture of charge buffer and water (⅔) are added and the final 20 μL are deposited on 2% premoulded agarose gel. The samples migrate in 30 minutes and the bands are visualised under UV in a dark room then digitally photographed.
(§9) Photos of the gels are analysed by image processing software which quantifies the intensity of the bands. As the basal level of defensin expression (untreated control) is not detectable, the intensity ratios of the hBD2/actin and hBD3/actin bands can be compared, for example with those obtained for the positive control (treated with TNFα for hBD2 and IFNγ for hBD3) and indicate any stimulation of the expression of the β-defensin in question
as §2

MIP3α [3] = assay: ELISA of MIP3α secreted into the culture medium, 1st step; assay type: cell-based, human; details: 100 μg/mL; keratinocyte supernatant, 16 h
Method: as §1, §2

hBD2 [4] = assay: Qualitative RT-PCR of hBD2 expression, 1st step of the screening method; assay type: cell-based; details: normal human keratinocytes, 16 h
Method: (§10) A 1% concentration of the actives is tested on normal human keratinocytes, as a monolayer, on 96-well culture plates, in a specific medium enriched with calcium and free of serum (final concentration 1.7 mM).
as §3, §4, §5, §6, §7, §8, §9, §2

MIP3α [5] = assay: ELISA of MIP3α in supernatants, 2nd step; assay type: cell-based, human; details: supernatant, 16 h
Method: (§11) The supernatants of the actives, whose capacity to induce defensins has been confirmed, are tested using an ELISA kit in order to assay MIP3α, IL8 and IL1α levels. These assays are performed on the same supernatant (200 μL) by carrying out a series dilution (by 1.5 to assay MIP3α and IL8, then by 2 to assay IL1). The levels are then referred to the RNA concentration assayed in each well in order to compare results with each other.
(§12) Quantitative RT-PCR makes it possible to obtain a basal value for the defensin expression for untreated controls. The results are therefore expressed as a percentage of the control. IL8, IL1 and MIP3 cytokine levels are given as pg/mL/RNA concentration (in ng/μL).

IL8 [6] = assay: ELISA of IL8 in supernatants, 2nd step; assay type: cell-based, human; details: supernatant, 16 h
Method: as §11, §12

hBD3 [7] = assay: Quantitative RT-PCR of hBD3 expression, 2nd step (dose-effect); assay type: cell-based, human; details: 16 h, untreated control = 100%
Method: (§13) The actives are then tested on 5 concentrations (from 0.001% to max viability) in quadruplicate on normal human keratinocytes as a monolayer on 96-well culture plates, in a specific medium enriched with calcium and free of serum (CaCl2 1.7 mM) (same conditions as in example 1).
as §4
(§14) Total RNA are extracted using a 96-well extraction kit on silica columns and assayed using a 96-well spectrophotometer at 260 and 280 nm. RNA are diluted to 5 ng/μL.
(§15) Quantitative RT-PCR in 96 wells on actin, hBD2 and hBD3 is initially carried out on 50 ng of RNA, using a one-step kit containing Sybrgreen, in a fluorescence thermocycler with the same primers as previously (0.5 μM). The amplification program is as follows: 50° C., 30 min; 94° C., 15 min; (94° C., 15 s; 60° C., 30 s; 72° C., 30 s)×50 cycles; 90° C., 1 min; 30° C., 1 min; 50° C. to 95° C. (10 s every ° C.); 14° C., infinite.
(§16) A study of the fusion graphs makes it possible to verify the specificity of amplified products. The fluorescence graph as a function of the number of cycles gives the C(T) value corresponding to the number of cycles needed to obtain initiation of the fluorescence signal. The more an mRNA is expressed, the lower the C(T) value. Calculation of Sgene=(½)^C(T) for each RNA takes into consideration the exponential increase in the number of copies during amplification. The Sgene hBD2/Sgene actin and Sgene hBD3/Sgene actin ratios can be compared with those of the untreated control to give the percentage stimulation produced.
as §12
(§17) In the same way as in example 2, retinoic acid and retinol were tested for their capacity to stimulate hBD2 and/or hBD3.

IL1α = assay: ELISA of IL1α in supernatants, 2nd step; assay type: cell-based, human; details: supernatant, 16 h
Method: as §11, §12

hBD2 [8] = assay: Quantitative RT-PCR of hBD2 expression, 2nd step (dose-effect); assay type: cell-based, human; details: 16 h, untreated control = 100%
Method: as §13, §4, §14, §15, §16, §12, §17

hBD2 and/or hBD3 [9] = assay: 1st step of the screening method, overall outcome (defensin RT-PCR plus MIP3α/IL8 ELISA); assay type: cell-based, human; details: first step
Method: as §10, §3, §4, §5
as §6, with “5707-5713). […]” for “5707-5713).”
Photos of the gels are analysed by image processing software which quantifies the intensity of the bands. […]

hBD2 and/or hBD3 [10] = assay: 2nd step of the screening method, overall outcome (quantitative RT-PCR plus MIP3α/IL8/IL1α ELISA); assay type: cell-based, human; details: 3.125, 6.25, 12.5 and 25 μg/mL
Method: The actives which best satisfied the criteria for the first step undergo a dose-effect analysis.
as §13, §4, §14, §15, §16
as §11, with “The levels are then referred to the RNA concentration assayed in each well in order to compare results with each other.” left out

CC[C@H](C)[C@H](N)C(=O)OC [Isoleucine Methyl ester]
IL8 level (IL8 [1]; 100 μg/mL): 7.7 pg/mL/RNA concentration (in ng/μL)
HBD3 expression, percentage of the positive control (IFNγ) (hBD3 [2]; 100 μg/mL): 6%
MIP3α level (MIP3α [3]): 3.8 pg/mL/RNA concentration (in ng/μL)
HBD2 expression, percentage of the positive control (TNFα) (hBD2 [4]; 100 μg/mL): 16%

TNFα
IL8 level (IL8 [1]; 100 ng/mL (positive control)): 186 pg/mL/RNA concentration (in ng/μL) and 97 pg/mL/RNA concentration (in ng/μL)
MIP3α level (MIP3α [5]; conc. 100 ng/mL): 23.6 pg/mL/RNA concentration (in ng/μL)
IL8 level (IL8 [6]; conc. 100 ng/mL): 175 pg/mL/RNA concentration (in ng/μL)
hBD3 expression, percentage of the control (hBD3 [7]; conc. 100 ng/mL): 774%
HBD3 expression, percentage of the positive control (IFNγ) (hBD3 [2]; 100 ng/mL (positive control)): 100%
IL1α level (IL1α; conc. 100 ng/mL): 21.8 pg/mL/RNA concentration (in ng/μL)
HBD2 expression, percentage of the positive control (TNFα) (hBD2 [4]; 100 ng/mL (positive control)): 100%
hBD2 expression, percentage of the control (hBD2 [8]; conc. 100 ng/mL): 1755%

CC[C@H](C)[C@H](N)C(=O)O [L-Isoleucine]
MIP3α level (MIP3α [5]; conc. 3.125 μg/mL): 5.2 pg/mL/RNA concentration (in ng/μL)
MIP3α level (MIP3α [5]; conc. 6.25 μg/mL): 4.9 pg/mL/RNA concentration (in ng/μL)
MIP3α level (MIP3α [5]; conc. 12.5 μg/mL): 5.9 pg/mL/RNA concentration (in ng/μL)
MIP3α level (MIP3α [5]; conc. 25 μg/mL): 4.5 pg/mL/RNA concentration (in ng/μL)
IL8 level (IL8 [6]; conc. 3.125 μg/mL): 36.9 pg/mL/RNA concentration (in ng/μL)
IL8 level (IL8 [6]; conc. 6.25 μg/mL): 33.6 pg/mL/RNA concentration (in ng/μL)
IL8 level (IL8 [6]; conc. 12.5 μg/mL): 42.2 pg/mL/RNA concentration (in ng/μL)
IL8 level (IL8 [6]; conc. 25 μg/mL): 35.1 pg/mL/RNA concentration (in ng/μL)
hBD3 expression, percentage of the control (hBD3 [7]; conc. 3.125 μg/mL): 89%
hBD3 expression, percentage of the control (hBD3 [7]; conc. 6.25 μg/mL): 94%
hBD3 expression, percentage of the control (hBD3 [7]; conc. 12.5 μg/mL): 101%
hBD3 expression, percentage of the control (hBD3 [7]; conc. 25 μg/mL): 106%
HBD3 expression, percentage of the positive control (IFNγ) (hBD3 [2]; 10 μg/mL): 0%
IL1α level (IL1α; conc. 3.125 μg/mL): 21 pg/mL/RNA concentration (in ng/μL)
IL1α level (IL1α; conc. 6.25 μg/mL): 22.3 pg/mL/RNA concentration (in ng/μL)
IL1α level (IL1α; conc. 12.5 μg/mL): 25.3 pg/mL/RNA concentration (in ng/μL)
IL1α level (IL1α; conc. 25 μg/mL): 22.8 pg/mL/RNA concentration (in ng/μL)
HBD2 expression, percentage of the positive control (TNFα) (hBD2 [4]; 10 μg/mL): 0%
stimulation of human defensins 2 and 3 by qualitative RT-PCR (in words) (hBD2 and/or hBD3 [9]): no significant stimulation of human defensins 2 and 3
induction of hBD2 and hBD3 expression in normal human keratinocytes (in words) (hBD2 and/or hBD3 [10]): has not been found capable of inducing hBD2 and hBD3 expression
hBD2 expression, percentage of the control (hBD2 [8]; conc. 3.125 μg/mL): 110%
hBD2 expression, percentage of the control (hBD2 [8]; conc. 6.25 μg/mL): 107%
hBD2 expression, percentage of the control (hBD2 [8]; conc. 12.5 μg/mL): 95%
hBD2 expression, percentage of the control (hBD2 [8]; conc. 25 μg/mL): 110%

B1: IFNγ: gamma interferon, positive control for hBD3 stimulation, 100 ng/mL (protein, UniProt P01579 24-161, looked up)
Interferon gamma: QDPYVKEAENLKKYFNAGHSDVADNGTLFLGILKNWKEESDRKIMQSQIVSFYFKLFKNFKDDQSIQKSVETIKEDMNVKFFNSNKKKRDDFEKLTNYSVTDLNVQRKAIHELIQVMAELSPAAKTGKRKRSQMLFRG
MIP3α level (MIP3α [5]; conc. 100 ng/mL): 11.6 pg/mL/RNA concentration (in ng/μL)
IL8 level (IL8 [6]; conc. 100 ng/mL): 100.5 pg/mL/RNA concentration (in ng/μL)
hBD3 expression, percentage of the control (hBD3 [7]; conc. 100 ng/mL): 4631%
IL1α level (IL1α; conc. 100 ng/mL): 40.1 pg/mL/RNA concentration (in ng/μL)
hBD2 expression, percentage of the control (hBD2 [8]; conc. 100 ng/mL): 472%
